Assay results reported in the NIST ThermoML archive (doi:10.1021/je300630u).

Columns and labels:
[1] = refractive index (other wavelength) (dimensionless); xn = mol fraction of the nth substance listed; details: 295.84 K, 101.3 kPa, Liquid, Wavelength=632.8 nm, Standard Abbe refractometry
[2] = refractive index (other wavelength) (dimensionless); details: 101 kPa, Liquid, Wavelength=632.8 nm, Standard Abbe refractometry

N#Cc1ccccc1 [benzonitrile] + CCCCCCCCCCCCC
[1]
Details	refractive index
x1 = 0.1148	1.428
x1 = 0.2007	1.4323
x1 = 0.3192	1.439
x1 = 0.3935	1.4443
x1 = 0.5	1.4525
x1 = 0.6113	1.4629
x1 = 0.7078	1.4738
x1 = 0.8007	1.4865
x1 = 0.9009	1.5032
x1 = 1	1.5239

CCCCCCCCCCCCC [tridecane] + N#Cc1ccccc1
Details	refractive index
[1], x2 = 0	1.4231

CCCCCCCCCCCCC [tridecane]
[2]
Details	refractive index
293.2 K	1.4244
294.26 K	1.4239
295.29 K	1.4234
295.84 K	1.4231
296.33 K	1.423
297.35 K	1.4225
298.37 K	1.4221
299.42 K	1.4216
300.39 K	1.4212
301.47 K	1.4207

N#Cc1ccccc1 [benzonitrile]
[2]
Details	refractive index
293.37 K	1.5252
293.99 K	1.5249
294.53 K	1.5247
295.09 K	1.5243
295.66 K	1.5241
295.84 K	1.5239
296.11 K	1.5238
296.8 K	1.5236
297.15 K	1.5233
297.91 K	1.523
298.2 K	1.5228
298.8 K	1.5225
298.83 K	1.5226
299.26 K	1.5223
300.06 K	1.5219
300.12 K	1.5219
300.31 K	1.5218
301.13 K	1.5214
301.23 K	1.5214
301.35 K	1.5213
302.26 K	1.5209
302.31 K	1.5209
302.42 K	1.5208
303.41 K	1.5203
304.49 K	1.5198
305.64 K	1.5192
306.89 K	1.5186
307.88 K	1.5181
